Experimental data: article PMC3094853 (Chembiochem : a European journal of chemical biology, 2010)
Read-outs that look alike come from different tables or passages of the source.

What was measured:
[1] = target: HER2 TK (Homo sapiens, UniProt P04626); experiment: ELISA of biotinylated peptide phosphorylation; type: biochemical
[2] = target: HER1 TK (Homo sapiens, UniProt P00533); experiment: ELISA of biotinylated peptide phosphorylation; type: biochemical; conditions: 20 µM ATP; 1.5 µM peptide substrate; 5 mM MgCl2; 5 mM MnCl2; HEPES pH 7.5; 23 °C

| Molecule | IC50 ([1]; 20 µM ATP, 1.5 µM peptide substrate, 5 mM MgCl2, 5 mM MnCl2, HEPES pH 7.5, 23 °C) [µM] | IC50 [2] [µM] | IC50 [1] [µM] |
| --- | --- | --- | --- |
| 4-trifluoromethylcinnamoyl pyrone [2e] | 0.16 | 0.33 |  |
| COc1cc(/C=C(\C#N)C(N)=O)cc(CSc2nc3ccccc3s2)c1O [AG-825] |  |  | 0.59 |
